Type in all cases: functional
In test [1] the test system is Kodamaea ohmeri. Kind of test: Z-6, Z-9-dodecadien-4-olide Isolated at 24 hours incubation of compound in Pichia ohmeri.
The test system of test [2] is Kodamaea ohmeri. Put plainly: Z-6-dodecen-4-olide Isolated at 24 hours incubation of compound in Pichia ohmeri.
The subject of test [3] is Kodamaea ohmeri. Put plainly: dodecan-4-olide Isolated at 24 hours incubation of compound in Pichia ohmeri.
In test [4] the test system is Scheffersomyces stipitis. Put plainly: 5-tetradecen-4-olide Isolated at 24 hours incubation of compound in Pichia stipitis.
The test system of test [5] is Scheffersomyces stipitis. Kind of test: Z-6, Z-9-dodecadien-4-olide Isolated at 24 hours incubation of compound in Pichia stipitis.
In test [6] the test system is Scheffersomyces stipitis. Kind of test: Z-6-dodecen-4-olide Isolated at 24 hours incubation of compound in Pichia stipitis.
In test [7] the test system is Scheffersomyces stipitis. Put plainly: dodecan-4-olide Isolated at 24 hours incubation of compound in Pichia stipitis.
Test [8] concerns Kodamaea ohmeri. Kind of test: Z-7-decen-5-olide Isolated at 24 hours incubation of compound in Pichia ohmeri.
The test system of test [9] is Scheffersomyces stipitis. Put plainly: Z-7-decen-5-olide Isolated at 24 hours incubation of compound in Pichia stipitis.
For test [10], the system named is Kodamaea ohmeri. Kind of test: Hexane-4-olide Isolated at 24 hours incubation of compound in Pichia ohmeri.
Test [11] relates to Scheffersomyces stipitis. Put plainly: 5-octen-4-olide Isolated at 24 hours incubation of compound in Pichia stipitis.
For test [12], the system named is Scheffersomyces stipitis. Put plainly: Hexane-4-olide Isolated at 24 hours incubation of compound in Pichia stipitis.
Test [13] has as its system Kodamaea ohmeri. Kind of test: Decan-4-olide Isolated at 24 hours incubation of compound in Pichia ohmeri.
Test [14] relates to Kodamaea ohmeri. Kind of test: E-5,Z-7-dodien-4-olide solated at 24 hours incubation of compound in Pichia ohmeri.
Test [15] relates to Kodamaea ohmeri. Put plainly: E-5-decen-4-olide Isolated at 24 hours incubation of compound in Pichia ohmeri.
In test [16] the test system is Scheffersomyces stipitis. Kind of test: E-5,Z-7-dodien-4-olide Isolated at 24 hours incubation of compound in Pichia stipitis.
Test [17] relates to Scheffersomyces stipitis. Kind of test: E-5-decen-4-olide Isolated at 24 hours incubation of compound in Pichia stipitis.
Test [18] deals with Kodamaea ohmeri. Put plainly: Nonan-4-olide Isolated at 24 hours incubation of compound in Pichia ohmeri.
In test [19] the test system is Kodamaea ohmeri. Put plainly: […] Isolated at 24 hours incubation of compound in Pichia ohmeri.
Test [20] relates to Scheffersomyces stipitis. Put plainly: Octane-4-olide Isolated at 24 hours incubation of compound in Pichia stipitis.
The test system of test [21] is Scheffersomyces stipitis. Put plainly: […] Isolated at 24 hours incubation of compound in Pichia stipitis.

`CCCCCCCC/C=C/CCCC1CCC(=O)O1` (stereo unspecified): the Lactone production was 25.6 in test [1]; 11.8 in test [2]; 4.6 in test [3]; 2.6 in test [4]; 16.7 in [5]; 11 in test [6]. Besides, the Lactone production in [7] came out at 4.
Take `CC/C=C/C[C@@H]1CCC(=O)O1`: the Lactone production in [8] came to 12.3; in test [9], 12.5.
For `CC/C=C/CCCC1CCC(=O)O1` (stereo unspecified), the values for the Lactone production in test [10], in test [11] and in test [12] were 8.25, 11.9 and 3.2, respectively.
Regarding `CC/C=C/C=C/[C@@H]1CCC(=O)O1`, the Lactone production in test [13] was 1.5; in test [14], 20.5; in test [15], 7.6; in test [16], 25.09; in [17] it was 8.6.
Turning to `CC/C=C/CC[C@@H]1CCC(=O)O1`, the Lactone production was found to be 5.9 in test [18], 1.1 in test [19], 4 in test [20] and 0.3 in [21].

The record behind these values is ChEMBL document CHEMBL1153686, “On the microbial biogeneration of (R) -jasmolactone” (1993).
